# Target: T1, CDK1/Cyclin B (Homo sapiens, UniProt P06493)
# T1 construct: purchased Invitrogen PR4768C
# Assay: Enzymatic assay for CDK1 (FRET based LANCE Ultra kinase assay)
# Type: biochemical
# Conditions: read-out: CDK1 enzymatic activity (IC50 range)
# Method in brief: (§1)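 TR-FRET (LANCE Ultra) kinase assay at ATP Km, ULight-MBP peptide substrate (68 nM), 8-dose 4-fold compound series in DMSO. Enzymes: […]; 60 min at 23° C., stopped with EDTA plus Eu-anti-phospho-MBP antibody, read 665/615 nm after 60 min.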
# T1 sequence (P06493 whole entry): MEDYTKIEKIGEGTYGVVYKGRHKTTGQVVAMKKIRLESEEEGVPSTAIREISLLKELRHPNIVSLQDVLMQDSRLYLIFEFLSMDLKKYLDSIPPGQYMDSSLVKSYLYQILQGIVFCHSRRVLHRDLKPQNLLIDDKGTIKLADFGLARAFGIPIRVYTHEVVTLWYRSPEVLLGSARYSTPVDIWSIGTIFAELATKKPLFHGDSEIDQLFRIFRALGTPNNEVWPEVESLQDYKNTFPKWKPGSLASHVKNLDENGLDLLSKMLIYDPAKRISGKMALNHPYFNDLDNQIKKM
# T1 sequence (P14635 whole entry partner): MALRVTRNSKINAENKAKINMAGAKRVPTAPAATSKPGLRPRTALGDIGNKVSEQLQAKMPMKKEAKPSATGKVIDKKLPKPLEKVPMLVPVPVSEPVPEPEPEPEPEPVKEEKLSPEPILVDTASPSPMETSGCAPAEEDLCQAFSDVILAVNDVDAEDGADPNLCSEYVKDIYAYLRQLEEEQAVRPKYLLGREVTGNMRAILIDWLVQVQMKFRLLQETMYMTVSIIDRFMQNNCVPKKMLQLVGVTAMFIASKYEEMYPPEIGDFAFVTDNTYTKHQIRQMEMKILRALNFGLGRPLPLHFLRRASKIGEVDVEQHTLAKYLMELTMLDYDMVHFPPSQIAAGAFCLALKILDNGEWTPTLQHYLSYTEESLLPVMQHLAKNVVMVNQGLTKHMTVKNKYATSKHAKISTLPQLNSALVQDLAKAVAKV
row,SMILES,IC50 [nM]
1,CC(C)c1cnn2c(NCc3cccc4cccnc34)nc(N3CCC(N)CC3)nc12 [Compound 9],100 to 1000
2,CC(C)(C)c1cnn2c(NCc3ccccc3-n3cccn3)nc(N3CCC(N)CC3)nc12 [Compound 24],100 to 1000
3,CC(C)c1cnn2c(NCc3ccccc3-n3cccn3)nc(NC3CCNCC3)nc12 [Compound 40],> 1000

# The remaining lines, values ahead:
row,IC50 [nM],SMILES
1,> 1000,CC(C)c1cnn2c(NCc3cccc(NC(=O)c4cccc(NC(=O)CCCN(C)C)c4)c3)nc(N3CCC(N)CC3)nc12 [Compound 70]
2,> 1000,CC(C)c1cnn2c(NCc3ccccc3-n3cccn3)nc(-c3ccc(Cl)c(OC4CCNCC4)c3)nc12 [Compound 173]
3,> 1000,CC(=O)N(C)c1ccccc1CNc1nc(N2CCC(N)CC2)nc2c(C(C)C)cnn12 [Compound 64]

# Target: T2, CDK2/Cyclin A (Homo sapiens, UniProt P24941)
# T2 construct: purchased Invitrogen PV6290
# Assay: Enzymatic assay for CDK2 (FRET based LANCE Ultra kinase assay)
# Type: biochemical
# Conditions: read-out: CDK2 enzymatic activity (IC50 range)
# Method in brief: as §1
row,SMILES,IC50 [nM]
1,CC(C)c1cnn2c(NCc3cccc4cccnc34)nc(N3CCC(N)CC3)nc12 [Compound 9],100 to 1000
2,CC(C)(C)c1cnn2c(NCc3ccccc3-n3cccn3)nc(N3CCC(N)CC3)nc12 [Compound 24],100 to 1000
3,CC(C)c1cnn2c(NCc3ccccc3-n3cccn3)nc(NC3CCNCC3)nc12 [Compound 40],100 to 1000

# Now from value to compound:
row,IC50 [nM],SMILES
1,100 to 1000,CC(C)c1cnn2c(NCc3cccc(NC(=O)c4cccc(NC(=O)CCCN(C)C)c4)c3)nc(N3CCC(N)CC3)nc12 [Compound 70]
2,> 1000,CC(C)c1cnn2c(NCc3ccccc3-n3cccn3)nc(-c3ccc(Cl)c(OC4CCNCC4)c3)nc12 [Compound 173]
3,> 1000,CC(=O)N(C)c1ccccc1CNc1nc(N2CCC(N)CC2)nc2c(C(C)C)cnn12 [Compound 64]

# Target: T3, CDK5/p25 (Homo sapiens, UniProt Q00535)
# T3 construct: purchased Invitrogen PR8543B
# T3 sequence (Q00535 whole entry): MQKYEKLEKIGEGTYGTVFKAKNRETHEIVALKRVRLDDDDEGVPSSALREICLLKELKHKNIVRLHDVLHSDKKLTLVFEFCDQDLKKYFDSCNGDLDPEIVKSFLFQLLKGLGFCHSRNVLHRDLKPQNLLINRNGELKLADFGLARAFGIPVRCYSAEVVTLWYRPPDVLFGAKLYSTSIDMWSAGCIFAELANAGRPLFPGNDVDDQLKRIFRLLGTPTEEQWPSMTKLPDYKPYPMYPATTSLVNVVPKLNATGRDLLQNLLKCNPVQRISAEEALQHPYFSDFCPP
# T3 sequence (Q15078 99-307 partner limits assumed): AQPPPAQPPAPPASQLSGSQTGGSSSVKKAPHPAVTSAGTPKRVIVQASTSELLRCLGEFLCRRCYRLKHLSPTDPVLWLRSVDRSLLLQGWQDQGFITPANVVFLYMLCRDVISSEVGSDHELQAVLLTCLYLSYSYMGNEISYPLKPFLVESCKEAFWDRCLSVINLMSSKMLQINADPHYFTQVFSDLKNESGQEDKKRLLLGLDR
# Assay: Enzymatic assay for CDK5 (FRET based LANCE Ultra kinase assay)
# Type: biochemical
# Conditions: read-out: CDK5 enzymatic activity (IC50 range)
# Method in brief: as §1
row,SMILES,IC50 [nM]
1,CC(C)c1cnn2c(NCc3cccc4cccnc34)nc(N3CCC(N)CC3)nc12 [Compound 9],< 100
2,CC(C)(C)c1cnn2c(NCc3ccccc3-n3cccn3)nc(N3CCC(N)CC3)nc12 [Compound 24],< 100
3,CC(C)c1cnn2c(NCc3ccccc3-n3cccn3)nc(NC3CCNCC3)nc12 [Compound 40],100 to 1000

# Other lines, results leading:
row,IC50 [nM],SMILES
1,100 to 1000,CC(C)c1cnn2c(NCc3cccc(NC(=O)c4cccc(NC(=O)CCCN(C)C)c4)c3)nc(N3CCC(N)CC3)nc12 [Compound 70]
2,100 to 1000,CC(C)c1cnn2c(NCc3ccccc3-n3cccn3)nc(-c3ccc(Cl)c(OC4CCNCC4)c3)nc12 [Compound 173]
3,100 to 1000,CC(=O)N(C)c1ccccc1CNc1nc(N2CCC(N)CC2)nc2c(C(C)C)cnn12 [Compound 64]

# Target: T4, CDK7/Cyclin H/MNAT1 (Homo sapiens, UniProt P50613)
# T4 construct: purchased Invitrogen PR6749B
# T4 sequence (P50613 whole entry): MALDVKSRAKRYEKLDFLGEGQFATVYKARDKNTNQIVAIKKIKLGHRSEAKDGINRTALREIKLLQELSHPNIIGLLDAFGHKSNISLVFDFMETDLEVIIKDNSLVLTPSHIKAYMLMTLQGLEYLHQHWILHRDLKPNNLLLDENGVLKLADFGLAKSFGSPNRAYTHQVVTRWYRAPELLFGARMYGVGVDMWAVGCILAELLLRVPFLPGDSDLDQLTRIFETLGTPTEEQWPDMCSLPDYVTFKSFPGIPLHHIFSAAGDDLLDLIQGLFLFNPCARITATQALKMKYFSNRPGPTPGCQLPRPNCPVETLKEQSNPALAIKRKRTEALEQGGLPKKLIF
# T4 sequence (P51946 whole entry partner): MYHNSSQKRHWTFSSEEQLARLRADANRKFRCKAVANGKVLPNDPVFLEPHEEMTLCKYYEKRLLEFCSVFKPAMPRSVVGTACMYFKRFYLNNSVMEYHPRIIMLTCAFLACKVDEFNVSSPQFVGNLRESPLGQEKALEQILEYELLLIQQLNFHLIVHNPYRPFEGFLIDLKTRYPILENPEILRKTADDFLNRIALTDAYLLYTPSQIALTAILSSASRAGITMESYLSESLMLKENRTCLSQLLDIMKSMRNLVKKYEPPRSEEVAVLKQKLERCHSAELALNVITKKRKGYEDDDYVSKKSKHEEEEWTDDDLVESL
# T4 sequence (P51948 whole entry partner): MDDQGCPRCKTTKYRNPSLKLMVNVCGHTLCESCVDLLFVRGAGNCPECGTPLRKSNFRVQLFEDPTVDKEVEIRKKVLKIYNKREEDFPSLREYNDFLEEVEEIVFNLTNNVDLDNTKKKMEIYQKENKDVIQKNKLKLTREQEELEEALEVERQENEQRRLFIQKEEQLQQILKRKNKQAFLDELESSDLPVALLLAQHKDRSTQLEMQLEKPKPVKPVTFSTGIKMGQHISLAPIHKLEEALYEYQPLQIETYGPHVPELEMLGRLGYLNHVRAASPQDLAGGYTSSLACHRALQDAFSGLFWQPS
# Assay: Enzymatic assay for CDK7 (FRET based LANCE Ultra kinase assay)
# Type: biochemical
# Conditions: CDK7 over CDK1
# Method in brief: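 LANCE Ultra TR-FRET kinase assay using a ULight-labeled peptide substrate and a Eu-labeled anti-phospho antibody, with ATP at its Km. Purified CDK/cyclin complex was added to compound after brief centrifugation.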
row,SMILES,CDK1/CDK7: Selectivity of CDK7 inhibition over CDK1 inhibition
1,CC(C)c1cnn2c(NCc3cccc4cccnc34)nc(N3CCC(N)CC3)nc12 [Compound 9],"B (B=less than 200 fold, but greater than 20 fold)"
2,CC(C)(C)c1cnn2c(NCc3ccccc3-n3cccn3)nc(N3CCC(N)CC3)nc12 [Compound 24],"B (B=less than 200 fold, but greater than 20 fold)"
3,CC(C)c1cnn2c(NCc3ccccc3-n3cccn3)nc(NC3CCNCC3)nc12 [Compound 40],A (A=greater than 200 fold)

# Results, then the compound that gave them:
row,CDK1/CDK7: Selectivity of CDK7 inhibition over CDK1 inhibition,SMILES
1,A (A=greater than 200 fold),CC(C)c1cnn2c(NCc3cccc(NC(=O)c4cccc(NC(=O)CCCN(C)C)c4)c3)nc(N3CCC(N)CC3)nc12 [Compound 70]
2,A (A=greater than 200 fold),CC(C)c1cnn2c(NCc3ccccc3-n3cccn3)nc(-c3ccc(Cl)c(OC4CCNCC4)c3)nc12 [Compound 173]
3,A (A=greater than 200 fold),CC(=O)N(C)c1ccccc1CNc1nc(N2CCC(N)CC2)nc2c(C(C)C)cnn12 [Compound 64]

# Same assay, conditions: CDK7 over CDK2
row,SMILES,CDK2/CDK7: Selectivity of CDK7 inhibition over CDK2 inhibition
1,CC(C)c1cnn2c(NCc3cccc4cccnc34)nc(N3CCC(N)CC3)nc12 [Compound 9],"B (B=less than 200 fold, but greater than 20 fold)"
2,CC(C)(C)c1cnn2c(NCc3ccccc3-n3cccn3)nc(N3CCC(N)CC3)nc12 [Compound 24],"B (B=less than 200 fold, but greater than 20 fold)"
3,CC(C)c1cnn2c(NCc3cccc(NC(=O)c4cccc(NC(=O)CCCN(C)C)c4)c3)nc(N3CCC(N)CC3)nc12 [Compound 70],"B (B=less than 200 fold, but greater than 20 fold)"
4,CC(C)c1cnn2c(NCc3ccccc3-n3cccn3)nc(-c3ccc(Cl)c(OC4CCNCC4)c3)nc12 [Compound 173],"B (B=less than 200 fold, but greater than 20 fold)"
5,CC(C)c1cnn2c(NCc3ccccc3-n3cccn3)nc(NC3CCNCC3)nc12 [Compound 40],"B (B=less than 200 fold, but greater than 20 fold)"
6,CC(=O)N(C)c1ccccc1CNc1nc(N2CCC(N)CC2)nc2c(C(C)C)cnn12 [Compound 64],A (A=greater than 200 fold)

# Same assay, conditions: CDK7 over CDK5
row,SMILES,CDK5/CDK7: Selectivity of CDK7 inhibition over CDK5 inhibition
1,CC(C)c1cnn2c(NCc3cccc4cccnc34)nc(N3CCC(N)CC3)nc12 [Compound 9],C (C=less than 20 fold)
2,CC(C)(C)c1cnn2c(NCc3ccccc3-n3cccn3)nc(N3CCC(N)CC3)nc12 [Compound 24],"B (B=less than 200 fold, but greater than 20 fold)"
3,CC(C)c1cnn2c(NCc3cccc(NC(=O)c4cccc(NC(=O)CCCN(C)C)c4)c3)nc(N3CCC(N)CC3)nc12 [Compound 70],"B (B=less than 200 fold, but greater than 20 fold)"
4,CC(C)c1cnn2c(NCc3ccccc3-n3cccn3)nc(-c3ccc(Cl)c(OC4CCNCC4)c3)nc12 [Compound 173],"B (B=less than 200 fold, but greater than 20 fold)"
5,CC(C)c1cnn2c(NCc3ccccc3-n3cccn3)nc(NC3CCNCC3)nc12 [Compound 40],C (C=less than 20 fold)
6,CC(=O)N(C)c1ccccc1CNc1nc(N2CCC(N)CC2)nc2c(C(C)C)cnn12 [Compound 64],"B (B=less than 200 fold, but greater than 20 fold)"

# Same assay, conditions: read-out: CDK7 enzymatic activity (IC50 range)
row,SMILES,IC50 [nM]
1,CC(C)c1cnn2c(NCc3cccc4cccnc34)nc(N3CCC(N)CC3)nc12 [Compound 9],< 100
2,CC(C)(C)c1cnn2c(NCc3ccccc3-n3cccn3)nc(N3CCC(N)CC3)nc12 [Compound 24],< 100
3,CC(C)c1cnn2c(NCc3ccccc3-n3cccn3)nc(NC3CCNCC3)nc12 [Compound 40],< 100

# The next lines start with the values.
row,IC50 [nM],SMILES
1,< 100,CC(C)c1cnn2c(NCc3cccc(NC(=O)c4cccc(NC(=O)CCCN(C)C)c4)c3)nc(N3CCC(N)CC3)nc12 [Compound 70]
2,< 100,CC(C)c1cnn2c(NCc3ccccc3-n3cccn3)nc(-c3ccc(Cl)c(OC4CCNCC4)c3)nc12 [Compound 173]
3,< 100,CC(=O)N(C)c1ccccc1CNc1nc(N2CCC(N)CC2)nc2c(C(C)C)cnn12 [Compound 64]

# Test system: HCT116
# Assay: Cellular HCT116 viability assay (CellTiter-Glo, 72 hours)
# Type: cell-based
# Conditions: Homo sapiens, HCT-116
# Method in brief: (§2)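 Steps: seed cells at per-line density; add compound, DMSO vehicle kept under 0.1% final; incubate 72 h, 37 °C, 5% CO2; lyse with CellTiter-Glo and read luminescence; run in duplicate.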
row,SMILES,IC50 [nM]
1,CC(C)c1cnn2c(NCc3ccccc3N(C)C3CCN(C)CC3)nc(N3CCC(N)CC3)nc12 [Compound 53],1000 to 10000
2,CC(C)(C)c1cnn2c(NCc3ccccc3-n3cccn3)nc(N3CCC(N)CC3)nc12 [Compound 24],< 1000

# The remaining lines, values ahead:
row,IC50 [nM],SMILES
1,1000 to 10000,CC(C)c1cnn2c(NCc3ccccc3NC3CCN(C)CC3)nc(N3CCC(N)CC3)nc12 [Compound 49]
2,1000 to 10000,CC(C)c1cnn2c(NCc3cccc(NC(=O)c4ccccc4)c3)nc(N3CCC(N)CC3)nc12 [Compound 50]

# Test system: H460
# Assay: Cellular H460 viability assay (CellTiter-Glo, 72 hours)
# Type: cell-based
# Conditions: Homo sapiens, NCI-H460
# Method in brief: as §2
row,SMILES,IC50 [nM]
1,CC(C)c1cnn2c(NCc3ccccc3N(C)C3CCN(C)CC3)nc(N3CCC(N)CC3)nc12 [Compound 53],< 1000
2,CC(C)c1cnn2c(NCc3cccc4cccnc34)nc(N3CCC(N)CC3)nc12 [Compound 9],< 1000
3,CC(C)(C)c1cnn2c(NCc3ccccc3-n3cccn3)nc(N3CCC(N)CC3)nc12 [Compound 24],< 1000
4,CC(C)c1cnn2c(NCc3ccccc3-n3cccn3)nc(NC3CCNCC3)nc12 [Compound 40],< 1000

# Results, then the compound that gave them:
row,IC50 [nM],SMILES
1,1000 to 10000,CC(C)c1cnn2c(NCc3cccc(NC(=O)c4cccc(NC(=O)CCCN(C)C)c4)c3)nc(N3CCC(N)CC3)nc12 [Compound 70]
2,1000 to 10000,CC(C)c1cnn2c(NCc3ccccc3-n3cccn3)nc(-c3ccc(Cl)c(OC4CCNCC4)c3)nc12 [Compound 173]
3,1000 to 10000,CC(C)c1cnn2c(NCc3ccccc3NC3CCN(C)CC3)nc(N3CCC(N)CC3)nc12 [Compound 49]
4,< 1000,CC(=O)N(C)c1ccccc1CNc1nc(N2CCC(N)CC2)nc2c(C(C)C)cnn12 [Compound 64]
5,< 1000,CC(C)c1cnn2c(NCc3cccc(NC(=O)c4ccccc4)c3)nc(N3CCC(N)CC3)nc12 [Compound 50]
6,< 1000,NC1CCN(c2nc(NCc3ccccc3-n3cccn3)n3ncc(C(F)(F)F)c3n2)CC1 [Compound 41]

# Test system: MV4-11
# Assay: Cellular MV4-11 viability assay (CellTiter-Glo, 72 hours)
# Type: cell-based
# Conditions: Homo sapiens
# Method in brief: as §2
row,IC50 [nM],SMILES
1,< 1000,CC(C)c1cnn2c(NCc3ccccc3-n3cccn3)nc(NC3CCNCC3)nc12 [Compound 40]
2,< 1000,CC(=O)N(C)c1ccccc1CNc1nc(N2CCC(N)CC2)nc2c(C(C)C)cnn12 [Compound 64]

# Test system: MOLT-4
# Assay: Cellular MOLT-4 viability assay (CellTiter-Glo, 72 hours)
# Type: cell-based
# Conditions: Homo sapiens, MOLT4 viability assay
# Procedure: All cell lines were routinely tested for mycoplasma.
# The effect of the CDK7 inhibitor to inhibit the growth of target cancer cells was evaluated through the 72 hours time period of viability assay. Briefly, the candidate cell line ware plated in 96 well plate at the following density of cells respectively. […] DMSO solvent without compound served as a control and final DMSO concentration less than 0.1%. After 72 hours of incubation at 37° C., 5% CO2 incubator, cells were analyzed for the viability using the CellTiter-Glo Luminescent Cell Viability Assay (Promega, Cat #G7570). All viability assays were performed in duplicate and Luminescence was read using an Envision (Perkin Elmer, USA). Data was analyzed using XLfit software.
row,SMILES,IC50 [nM]
1,CC(C)c1cnn2c(NCc3ccccc3N(C)C3CCN(C)CC3)nc(N3CCC(N)CC3)nc12 [Compound 53],1000 to 10000
2,CC(C)c1cnn2c(NCc3cccc4cccnc34)nc(N3CCC(N)CC3)nc12 [Compound 9],1000 to 10000
3,CC(C)(C)c1cnn2c(NCc3ccccc3-n3cccn3)nc(N3CCC(N)CC3)nc12 [Compound 24],1000 to 10000
4,CC(C)c1cnn2c(NCc3ccccc3-n3cccn3)nc(NC3CCNCC3)nc12 [Compound 40],> 10000

# Next, values leading:
row,IC50 [nM],SMILES
1,> 10000,CC(C)c1cnn2c(NCc3cccc(NC(=O)c4cccc(NC(=O)CCCN(C)C)c4)c3)nc(N3CCC(N)CC3)nc12 [Compound 70]
2,1000 to 10000,CC(C)c1cnn2c(NCc3ccccc3-n3cccn3)nc(-c3ccc(Cl)c(OC4CCNCC4)c3)nc12 [Compound 173]
3,1000 to 10000,CC(C)c1cnn2c(NCc3ccccc3NC3CCN(C)CC3)nc(N3CCC(N)CC3)nc12 [Compound 49]
4,> 10000,CC(=O)N(C)c1ccccc1CNc1nc(N2CCC(N)CC2)nc2c(C(C)C)cnn12 [Compound 64]
5,1000 to 10000,CC(C)c1cnn2c(NCc3cccc(NC(=O)c4ccccc4)c3)nc(N3CCC(N)CC3)nc12 [Compound 50]
6,> 10000,NC1CCN(c2nc(NCc3ccccc3-n3cccn3)n3ncc(C(F)(F)F)c3n2)CC1 [Compound 41]

# Reference: US11945822B2, “Pyrazolo-triazine and/or pyrazolo-pxrimidine derivatives as selective inhibitor of cyclin dependent kinase” (QURIENT CO., LTD., priority 2018, dated 2024)
